Values after ≈ are worked out from the molar mass of the structure shown.
How the values were obtained:
Format in all cases: cell-based
[1] = system: Pseudomonas aeruginosa PAO 1; test: Antibacterial activity, agar-dilution MIC, organism No. 17; settings: Pseudomonas aeruginosa, PAO1; Organism No. 17, bouillon-agar; read-out: Minimum Inhibitory Concentration
Method in brief: (§1)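 Agar dilution, bouillon-agar plates; MIC reported in μg/ml of medium.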

[2] = system: Klebsiella pneumoniae PCI-602; test: Antibacterial activity, agar-dilution MIC, organism No. 7; settings: Klebsiella pneumoniae, PCI602; Organism No. 7, bouillon-agar; read-out: Minimum Inhibitory Concentration
Method in brief: as §1

[3] = system: Candida albicans IAM 4905; test: Antifungal activity, agar-dilution MIC, organism No. 29; settings: Candida albicans, IAM4905; Organism No. 29, bouillon-agar; read-out: Minimum Inhibitory Concentration
Method in brief: as §1

[4] = system: Salmonella typhi 901; test: Antibacterial activity, agar-dilution MIC, organism No. 9; settings: Salmonella enterica, TYPHI, read-out: Minimum Inhibitory Concentration
Method in brief: as §1

[5] = system: Bacillus subtilis ATCC 6633; test: Antibacterial activity, agar-dilution MIC, organism No. 14; settings: Bacillus subtilis, ATCC6633; Organism No. 14, bouillon-agar; read-out: Minimum Inhibitory Concentration
Method in brief: as §1

[6] = system: Proteus morganii IFO 3848; test: Antibacterial activity, agar-dilution MIC, organism No. 18; settings: Morganella morganii, IFO3848; Organism No. 18, bouillon-agar; read-out: Minimum Inhibitory Concentration
Method in brief: as §1

[7] = system: Streptococcus pyogenes Cook; test: Antibacterial activity, agar-dilution MIC, organism No. 4; settings: Streptococcus pyogenes; Organism No. 4, bouillon-agar; read-out: Minimum Inhibitory Concentration
Method in brief: as §1

[8] = system: Salmonella shottmuelleri 8006; test: Antibacterial activity, agar-dilution MIC, organism No. 11; settings: Salmonella, 8006; Organism No. 11, bouillon-agar; read-out: Minimum Inhibitory Concentration
Method in brief: as §1

[9] = system: Micrococcus luteus ATCC 9341; test: Antibacterial activity, agar-dilution MIC, organism No. 25; settings: Micrococcus luteus, ATCC9341; Organism No. 25, bouillon-agar; read-out: Minimum Inhibitory Concentration
Method in brief: as §1

[10] = system: Mycoplasma pneumoniae IID817; test: Antimycoplasmal activity, MIC by phenol red colour change, organism No. 28; settings: Mycoplasma, IID817; Organism No. 28, PPLO broth + 1% glucose, 37° C.; read-out: Minimum Inhibitory Concentration (MIC)
Description: Mycoplasma pneumoniae IID817 was used as the test microorganism in a culture medium prepared by adding 1% of glucose to "PPLO broth (manufactured by Difco Co.) liquid culture medium" at 37° C. with phenol red as an indicator, thereby culturing the test microorganism.

[11] = system: Escherichia coli K12 C600 IAM 1264; test: Antibacterial activity, agar-dilution MIC, organism No. 6; settings: Escherichia coli, IAM1264; Organism No. 6, bouillon-agar; read-out: Minimum Inhibitory Concentration
Method in brief: as §1

[12] = system: Streptococcus pyogenes IFO 3340; test: Antibacterial activity, agar-dilution MIC, organism No. 26; settings: Streptococcus pyogenes, IFO3340; Organism No. 26, bouillon-agar; read-out: Minimum Inhibitory Concentration
Method in brief: as §1

[13] = system: Serratia marcescens IAM 1184; test: Antibacterial activity, agar-dilution MIC, organism No. 13; settings: Serratia marcescens, IAM1184; Organism No. 13, bouillon-agar; read-out: Minimum Inhibitory Concentration
Method in brief: as §1

[14] = system: Enterobacter cloacae 963; test: Antibacterial activity, agar-dilution MIC, organism No. 24; settings: Enterobacter cloacae, 963; Organism No. 24, bouillon-agar; read-out: Minimum Inhibitory Concentration
Method in brief: as §1

[15] = system: Enterobacter aerogenes ATCC 13048; test: Antibacterial activity, agar-dilution MIC, organism No. 23; settings: Klebsiella aerogenes, ATCC13048; Organism No. 23, bouillon-agar; read-out: Minimum Inhibitory Concentration
Method in brief: as §1

[16] = system: Staphylococcus aureus Terajima; test: Antibacterial activity, agar-dilution MIC, organism No. 2; settings: Staphylococcus aureus; Organism No. 2, bouillon-agar; read-out: Minimum Inhibitory Concentration
Method in brief: as §1

[17] = system: Proteus rettgeri IFO 3850; test: Antibacterial activity, agar-dilution MIC, organism No. 22; settings: Providencia rettgeri, IFO3850; Organism No. 22, bouillon-agar; read-out: Minimum Inhibitory Concentration
Method in brief: as §1

[18] = system: Streptococcus faecium IFO 3826; test: Antibacterial activity, agar-dilution MIC, organism No. 27; settings: Enterococcus faecium, IFO3826; Organism No. 27, bouillon-agar; read-out: Minimum Inhibitory Concentration
Method in brief: as §1

[19] = system: Proteus vulgaris OX-19; test: Antibacterial activity, agar-dilution MIC, organism No. 20; settings: Proteus vulgaris, OX19; Organism No. 20, bouillon-agar; read-out: Minimum Inhibitory Concentration
Method in brief: as §1

[20] = system: Staphylococcus aureus MS 353; test: Antibacterial activity, agar-dilution MIC, organism No. 3; settings: Staphylococcus aureus, MS353; Organism No. 3, bouillon-agar; read-out: Minimum Inhibitory Concentration
Method in brief: as §1

[21] = system: Proteus vulgaris HX-19; test: Antibacterial activity, agar-dilution MIC, organism No. 21; settings: Proteus vulgaris, HX19; Organism No. 21, bouillon-agar; read-out: Minimum Inhibitory Concentration
Method in brief: as §1

[22] = system: Salmonella paratyphi-A 1015; test: Antibacterial activity, agar-dilution MIC, organism No. 10; settings: Salmonella enterica, PARATYPHI, read-out: Minimum Inhibitory Concentration
Method in brief: as §1

[23] = system: Salmonella typhimurium IID 971; test: Antibacterial activity, agar-dilution MIC, organism No. 8; settings: Salmonella enterica; Organism No. 8, bouillon-agar; read-out: Minimum Inhibitory Concentration
Method in brief: as §1

[24] = system: Pseudomonas aeruginosa IFO 3445; test: Antibacterial activity, agar-dilution MIC, organism No. 15; settings: Pseudomonas aeruginosa, IFO3445; Organism No. 15, bouillon-agar; read-out: Minimum Inhibitory Concentration
Method in brief: as §1

[25] = system: Escherichia coli NIHJ-JC-2; test: Antibacterial activity, agar-dilution MIC, organism No. 5; settings: Escherichia coli, NIHJJC2; Organism No. 5, bouillon-agar; read-out: Minimum Inhibitory Concentration
Method in brief: as §1

[26] = system: Staphylococcus aureus FDA 209PJc-1; test: Antibacterial activity, agar-dilution MIC, organism No. 1; settings: Staphylococcus aureus, FDA209PJC1; Organism No. 1, bouillon-agar; read-out: Minimum Inhibitory Concentration
Method in brief: as §1

[27] = system: Proteus mirabilis IFO 3849; test: Antibacterial activity, agar-dilution MIC, organism No. 19; settings: Proteus mirabilis, IFO3849; Organism No. 19, bouillon-agar; read-out: Minimum Inhibitory Concentration
Method in brief: as §1

[28] = system: Pseudomonas aeruginosa NCTC 10490; test: Antibacterial activity, agar-dilution MIC, organism No. 16; settings: Pseudomonas aeruginosa, NCTC10490; Organism No. 16, bouillon-agar; read-out: Minimum Inhibitory Concentration
Method in brief: as §1

[29] = system: Salmonella enteritidis G 14; test: Antibacterial activity, agar-dilution MIC, organism No. 12; settings: Salmonella enterica, ENTERITIDIS; Organism No. 12, bouillon-agar; read-out: Minimum Inhibitory Concentration
Method in brief: as §1

[30] = system: Aspergillus niger IFO 6342; test: Antifungal activity, agar-dilution MIC, organism No. 30; settings: Aspergillus niger, IFO6342; Organism No. 30, bouillon-agar; read-out: Minimum Inhibitory Concentration
Method in brief: as §1

With `[C-]#[N+]C12CC3(/C=C/C(=O)OCC(=O)c4cccc(OC)c4)OC3C1O2` (stereo not drawn) [compound 7] the MIC [1] was > 100 µg/mL, the MIC [2] was 3.13 µg/mL (≈ 9.17 µM) and the MIC [3] was 1.56 µg/mL (≈ 4.57 µM). For the same molecule, the MIC [4] was 6.25 µg/mL (≈ 18.3 µM), the MIC [5] was 6.25 µg/mL (≈ 18.3 µM) and the MIC [6] was 12.5 µg/mL (≈ 36.6 µM). It also gave an MIC [7] of 12.5 µg/mL (≈ 36.6 µM), an MIC [8] of 6.25 µg/mL (≈ 18.3 µM) and an MIC [9] of 0.39 µg/mL (≈ 1.14 µM). For the same molecule, the MIC [10] was < 0.2 µg/mL, the MIC [11] was 12.5 µg/mL (≈ 36.6 µM) and the MIC [12] was 12.5 µg/mL (≈ 36.6 µM). For the same molecule, the MIC [13] was 25 µg/mL (≈ 73.2 µM), the MIC [14] was > 100 µg/mL and the MIC [15] was > 100 µg/mL. For the same molecule, the MIC [16] was 6.25 µg/mL (≈ 18.3 µM), the MIC [17] was > 100 µg/mL and the MIC [18] was 6.25 µg/mL (≈ 18.3 µM). For the same molecule, the MIC [19] was 1.56 µg/mL (≈ 4.57 µM), the MIC [20] was 0.39 µg/mL (≈ 1.14 µM) and the MIC [21] was 0.39 µg/mL (≈ 1.14 µM). For the same molecule, the MIC [22] was 12.5 µg/mL (≈ 36.6 µM), the MIC [23] was 25 µg/mL (≈ 73.2 µM) and the MIC [24] was > 100 µg/mL. The MIC [25] was 25 µg/mL (≈ 73.2 µM), the MIC [26] was 0.39 µg/mL (≈ 1.14 µM) and the MIC [27] was 12.5 µg/mL (≈ 36.6 µM). The MIC [28] was > 100 µg/mL, the MIC [29] was 12.5 µg/mL (≈ 36.6 µM) and the MIC [30] was 3.13 µg/mL (≈ 9.17 µM).

In the case of `[C-]#[N+]C12CC3(/C=C/C(=O)OCC(=O)c4ccc([N+](=O)[O-])cc4)OC3C1O2` (stereo not drawn) [compound 8], the MIC [1] is reported as > 100 µg/mL, the MIC [2] is reported as 50 µg/mL (≈ 140 µM) and the MIC [3] is reported as 25 µg/mL (≈ 70.2 µM). It also gave an MIC [4] of 12.5 µg/mL (≈ 35.1 µM), an MIC [5] of 100 µg/mL (≈ 281 µM) and an MIC [6] of 25 µg/mL (≈ 70.2 µM). It also gave an MIC [7] of 50 µg/mL (≈ 140 µM), an MIC [8] of 25 µg/mL (≈ 70.2 µM) and an MIC [9] of 12.5 µg/mL (≈ 35.1 µM). For the same molecule, the MIC [10] was 1.56 µg/mL, the MIC [11] was 25 µg/mL (≈ 70.2 µM) and the MIC [12] was 50 µg/mL (≈ 140 µM). For the same molecule, the MIC [13] was 100 µg/mL (≈ 281 µM), the MIC [14] was > 100 µg/mL and the MIC [15] was > 100 µg/mL. For the same molecule, the MIC [16] was 25 µg/mL (≈ 70.2 µM), the MIC [17] was > 100 µg/mL and the MIC [18] was 25 µg/mL (≈ 70.2 µM). For the same molecule, the MIC [19] was 12.5 µg/mL (≈ 35.1 µM), the MIC [20] was 12.5 µg/mL (≈ 35.1 µM) and the MIC [21] was 12.5 µg/mL (≈ 35.1 µM). For the same molecule, the MIC [22] was 25 µg/mL (≈ 70.2 µM), the MIC [23] was 25 µg/mL (≈ 70.2 µM) and the MIC [24] was > 100 µg/mL. It also gave an MIC [25] of 25 µg/mL (≈ 70.2 µM), an MIC [26] of 12.5 µg/mL (≈ 35.1 µM) and an MIC [27] of 100 µg/mL (≈ 281 µM). The MIC [28] was > 100 µg/mL, the MIC [29] was 12.5 µg/mL (≈ 35.1 µM) and the MIC [30] was 100 µg/mL (≈ 281 µM).

In the case of `[C-]#[N+]C12CC3(/C=C/C(=O)OCc4c(C)cc(C)cc4C)OC3C1O2` (stereo not drawn) [compound 11], the MIC [1] is reported as > 100 µg/mL, the MIC [2] is reported as 6.25 µg/mL (≈ 19.2 µM) and the MIC [3] is reported as 1.56 µg/mL (≈ 4.79 µM). It also gave an MIC [4] of 6.25 µg/mL (≈ 19.2 µM), an MIC [5] of 0.78 µg/mL (≈ 2.4 µM) and an MIC [6] of 3.13 µg/mL (≈ 9.62 µM). For the same molecule, the MIC [7] was 3.13 µg/mL (≈ 9.62 µM), the MIC [8] was 12.5 µg/mL (≈ 38.4 µM) and the MIC [9] was < 0.1 µg/mL. The MIC [10] was < 0.2 µg/mL, the MIC [11] was 25 µg/mL (≈ 76.8 µM) and the MIC [12] was 3.13 µg/mL (≈ 9.62 µM). The MIC [13] was 12.5 µg/mL (≈ 38.4 µM), the MIC [14] was > 100 µg/mL and the MIC [15] was > 100 µg/mL. The MIC [16] was 6.25 µg/mL (≈ 19.2 µM), the MIC [17] was 12.5 µg/mL (≈ 38.4 µM) and the MIC [18] was 6.25 µg/mL (≈ 19.2 µM). It also gave an MIC [19] of 6.25 µg/mL (≈ 19.2 µM), an MIC [20] of 3.13 µg/mL (≈ 9.62 µM) and an MIC [21] of 3.13 µg/mL (≈ 9.62 µM). The MIC [22] was 12.5 µg/mL (≈ 38.4 µM), the MIC [23] was 12.5 µg/mL (≈ 38.4 µM) and the MIC [24] was > 100 µg/mL. It also gave an MIC [25] of 25 µg/mL (≈ 76.8 µM), an MIC [26] of 3.13 µg/mL (≈ 9.62 µM) and an MIC [27] of 12.5 µg/mL (≈ 38.4 µM). For the same molecule, the MIC [28] was > 100 µg/mL, the MIC [29] was 12.5 µg/mL (≈ 38.4 µM) and the MIC [30] was 6.25 µg/mL (≈ 19.2 µM).
